# Test results reported in patent US9175003B2, “Substituted azoanthracene derivatives and intermediates for preparation thereof” (TransTech Pharma, LLC, priority 2009, dated 2015).
# Biological target: human GLP-1 receptor (Homo sapiens (Human), UniProt P43220)
# Conditions: read-out: Mean EC50; cAMP, HTRF detection, 30 min at 37° C., HEK-293 cells expressing cloned human GLP-1 receptor
# Chain of human GLP-1 receptor (P43220 24-463): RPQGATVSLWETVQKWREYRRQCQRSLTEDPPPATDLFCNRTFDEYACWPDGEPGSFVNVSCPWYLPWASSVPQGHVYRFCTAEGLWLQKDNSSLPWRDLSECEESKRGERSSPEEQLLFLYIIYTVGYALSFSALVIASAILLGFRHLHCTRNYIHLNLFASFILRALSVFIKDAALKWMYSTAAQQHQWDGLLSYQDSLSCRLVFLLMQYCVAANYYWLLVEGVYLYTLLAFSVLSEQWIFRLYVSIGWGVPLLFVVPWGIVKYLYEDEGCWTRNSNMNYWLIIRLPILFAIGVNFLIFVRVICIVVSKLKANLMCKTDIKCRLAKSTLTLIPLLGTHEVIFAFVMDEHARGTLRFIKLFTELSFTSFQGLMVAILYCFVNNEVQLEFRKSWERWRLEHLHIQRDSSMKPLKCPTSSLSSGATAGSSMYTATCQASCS
row,SMILES,EC50
1,"N#Cc1ccc(-c2ccc(C[C@H](NC(=O)[C@@H]3Cc4cc5c(cc4CN3S(=O)(=O)c3ccc(N4CCOCC4)nc3)OC(c3ccc(OCc4ccc(Cl)c(Cl)c4)cc3)CO5)C(=O)O)cc2)cc1 (stereo in doubt) [Example 112, (S)-3-(4′-Cyano-biphenyl-4-yl)-2-{[(S)-3-[4-(3,4-dichloro-benzyloxy)-phenyl]-7-(6-morpholin-4-yl-pyridine-3-sulfonyl)-2,3,6,7,8,9-hexahydro-[1,4]dioxino[2,3-g]isoquinoline-8-carbonyl]-amino}-propionic acid]",48 nM
2,"Cc1nc(NC(=O)C(C)C)sc1S(=O)(=O)N1Cc2cc3c(cc2C[C@H]1C(=O)N[C@@H](Cc1ccc(-c2ccc(C#N)cc2)cc1)C(=O)O)OCC(c1ccc(OCc2ccc(Cl)c(Cl)c2)cc1)O3 (stereo in doubt) [Example 114, (S)-3-(4′-Cyano-biphenyl-4-yl)-2-{[(S)-3-[4-(3,4-dichloro-benzyloxy)-phenyl]-7-(2-isobutyrylamino-4-methyl-thiazole-5-sulfonyl)-2,3,6,7,8,9-hexahydro-[1,4]dioxino[2,3-g]isoquinoline-8-carbonyl]-amino}-propionic acid]",232 nM
3,"Cc1noc(C)c1S(=O)(=O)N1Cc2cc3c(cc2C[C@H]1C(=O)N[C@@H](Cc1ccc(-c2ccc(C#N)cc2)cc1)C(=O)O)OCC(c1ccc(OCc2ccc(Cl)c(Cl)c2)cc1)O3 (stereo in doubt) [Example 128, (S)-3-(4′-Cyano-biphenyl-4-yl)-2-{[(S)-3-[4-(3,4-dichloro-benzyloxy)-phenyl]-7-(3,5-dimethyl-isoxazole-4-sulfonyl)-2,3,6,7,8,9-hexahydro-[1,4]dioxino[2,3-g]isoquinoline-8-carbonyl]-amino}-propionic acid]",178 nM
4,"Cc1nc(C)c(S(=O)(=O)N2Cc3cc4c(cc3C[C@H]2C(=O)N[C@@H](Cc2ccc(-c3ccc(C#N)cc3)cc2)C(=O)O)OCC(c2ccc(OCc3ccc(Cl)c(Cl)c3)cc2)O4)s1 (stereo in doubt) [Example 130, (S)-3-(4′-Cyano-biphenyl-4-yl)-2-{[(S)-3-[4-(3,4-dichloro-benzyloxy)-phenyl]-7-(2,4-dimethyl-thiazole-5-sulfonyl)-2,3,6,7,8,9-hexahydro-[1,4]dioxino[2,3-g]isoquinoline-8-carbonyl]-amino}-propionic acid]",111 nM
5,"Cc1nc(N2CCOCC2)ccc1S(=O)(=O)N1Cc2cc3c(cc2C[C@H]1C(=O)N[C@@H](Cc1ccc(-c2ccc(C#N)cc2)cc1)C(=O)O)OCC(c1ccc(OCc2ccc(Cl)c(Cl)c2)cc1)O3 (stereo in doubt) [Example 133, (S)-3-(4′-Cyano-biphenyl-4-yl)-2-{[(S)-3-[4-(3,4-dichloro-benzyloxy)-phenyl]-7-(2-methyl-6-morpholin-4-yl-pyridine-3-sulfonyl)-2,3,6,7,8,9-hexahydro-[1,4]dioxino[2,3-g]isoquinoline-8-carbonyl]-amino}-propionic acid]",54 nM
6,"COCCNc1ccc(S(=O)(=O)N2Cc3cc4c(cc3C[C@H]2C(=O)N[C@@H](Cc2ccc(-c3ccc(C#N)cc3)cc2)C(=O)O)OCC(c2ccc(OCc3ccc(Cl)c(Cl)c3)cc2)O4)c(C)n1 (stereo in doubt) [Example 136, (S)-3-(4′-Cyano-biphenyl-4-yl)-2-({(S)-3-[4-(3,4-dichloro-benzyloxy)-phenyl]-7-[6-(2-methoxy-ethylamino)-2-methyl-pyridine-3-sulfonyl]-2,3,6,7,8,9-hexahydro-[1,4]dioxino[2,3-g]isoquinoline-8-carbonyl}-amino)-propionic acid]",50 nM
7,"CC(=O)Nc1nc(-c2ccc(S(=O)(=O)N3Cc4cc5c(cc4C[C@H]3C(=O)N[C@@H](Cc3ccc(-c4ccc(C#N)cc4)cc3)C(=O)O)OCC(c3ccc(OCc4ccc(Cl)c(Cl)c4)cc3)O5)cc2)cs1 (stereo in doubt) [Example 138, (S)-2-({(S)-7-[4-(2-Acetylamino-thiazol-4-yl)-benzenesulfonyl]-3-[4-(3,4-dichloro-benzyloxy)-phenyl]-2,3,6,7,8,9-hexahydro-[1,4]dioxino[2,3-g]isoquinoline-8-carbonyl}-amino)-3-(4′-cyano-biphenyl-4-yl)-propionic acid]",241 nM
8,"CNc1nc(C)c(S(=O)(=O)N2Cc3cc4c(cc3C[C@H]2C(=O)N[C@@H](Cc2ccc(-c3ccc(C#N)cc3)cc2)C(=O)O)OC[C@@H](c2ccc(OCc3ccc(Cl)c(Cl)c3)cc2)O4)s1 [Example 61, (S)-3-(4′-Cyano-biphenyl-4-yl)-2-{[(3R,8S)-3-[4-(3,4-dichloro-benzyloxy)-phenyl]-7-(4-methyl-2-methylamino-thiazole-5-sulfonyl)-2,3,6,7,8,9-hexahydro-[1,4]dioxino[2,3-g]isoquinoline-8-carbonyl]-amino}-propionic acid]",73 nM
9,"CCNc1nc(C)c(S(=O)(=O)N2Cc3cc4c(cc3C[C@H]2C(=O)N[C@@H](Cc2ccc(-c3ccc(C#N)cc3)cc2)C(=O)O)OC[C@@H](c2ccc(OCc3ccc(Cl)c(Cl)c3)cc2)O4)s1 [Example 62, (S)-3-(4′-Cyano-biphenyl-4-yl)-2-{[(3R,8S)-3-[4-(3,4-dichloro-benzyloxy)-phenyl]-7-(2-ethylamino-4-methyl-thiazole-5-sulfonyl)-2,3,6,7,8,9-hexahydro-[1,4]dioxino[2,3-g]isoquinoline-8-carbonyl]-amino}-propionic acid]",328 nM
10,Cc1nc(NC(=O)[C@@H]2CCCN2)sc1S(=O)(=O)N1Cc2cc3c(cc2C[C@H]1C(=O)N[C@@H](Cc1ccc(-c2ccc(C#N)cc2)cc1)C(=O)O)OCC(c1ccc(OCc2ccc(Cl)c(Cl)c2)cc1)O3 (stereo partly drawn) [Example 71],477 nM

# Results, then the molecule that gave them:
row,EC50,SMILES
1,163 nM,"CC(=O)Nc1ccc(S(=O)(=O)N2Cc3cc4c(cc3C[C@H]2C(=O)N[C@@H](Cc2ccc(-c3ccc(C#N)cc3)cc2)C(=O)O)OCC(c2ccc(OCc3ccc(Cl)c(Cl)c3)cc2)O4)cc1 (stereo in doubt) [Example 115, (S)-2-({(S)-7-(4-Acetylamino-benzenesulfonyl)-3-[4-(3,4-dichloro-benzyloxy)-phenyl]-2,3,6,7,8,9-hexahydro-[1,4]dioxino[2,3-g]isoquinoline-8-carbonyl}-amino)-3-(4′-cyano-biphenyl-4-yl)-propionic acid]"
2,312 nM,"Cc1nc(N)sc1C(=O)N1Cc2cc3c(cc2C[C@H]1C(=O)N[C@@H](Cc1ccc(-c2ccc(C#N)cc2)cc1)C(=O)O)OCC(c1ccc(OCc2ccc(Cl)c(Cl)c2)cc1)O3 (stereo in doubt) [Example 126, (S)-2-({(S)-7-(2-Amino-4-methyl-thiazole-5-carbonyl)-3-[4-(3,4-dichloro-benzyloxy)-phenyl]-2,3,6,7,8,9-hexahydro-[1,4]dioxino[2,3-g]isoquinoline-8-carbonyl}-amino)-3-(4′-cyano-biphenyl-4-yl)-propionic acid]"
3,284 nM,"CCNc1ccc(S(=O)(=O)N2Cc3cc4c(cc3C[C@H]2C(=O)N[C@@H](Cc2ccc(-c3ccc(C#N)cc3)cc2)C(=O)O)OCC(c2ccc(OCc3ccc(Cl)c(Cl)c3)cc2)O4)c(C)n1 (stereo in doubt) [Example 135, (S)-3-(4′-Cyano-biphenyl-4-yl)-2-{[(S)-3-[4-(3,4-dichloro-benzyloxy)-phenyl]-7-(6-ethylamino-2-methyl-pyridine-3-sulfonyl)-2,3,6,7,8,9-hexahydro-[1,4]dioxino[2,3-g]isoquinoline-8-carbonyl]-amino}-propionic acid]"
4,85 nM,"N#Cc1ccc(-c2ccc(C[C@H](NC(=O)[C@@H]3Cc4cc5c(cc4CN3S(=O)(=O)c3ccc(-c4csc(N)n4)cc3)OC(c3ccc(OCc4ccc(Cl)c(Cl)c4)cc3)CO5)C(=O)O)cc2)cc1 (stereo in doubt) [Example 139, (S)-2-({(S)-7-[4-(2-Amino-thiazol-4-yl)-benzenesulfonyl]-3-[4-(3,4-dichloro-benzyloxy)-phenyl]-2,3,6,7,8,9-hexahydro-[1,4]dioxino[2,3-g]isoquinoline-8-carbonyl}-amino)-3-(4′-cyano-biphenyl-4-yl)-propionic acid]"
5,109 nM,"Cc1nc(N)sc1S(=O)(=O)N1Cc2cc3c(cc2C[C@H]1C(=O)N[C@@H](Cc1ccc(-c2ccc(C#N)cc2)cc1)C(=O)O)OC[C@@H](c1ccc(OCc2ccc(Cl)c(Cl)c2)cc1)O3 [Example 60, (S)-2-({(3R,8S)-7-(2-Amino-4-methyl-thiazole-5-sulfonyl)-3-[4-(3,4-dichloro-benzyloxy)-phenyl]-2,3,6,7,8,9-hexahydro-[1,4]dioxino[2,3-g]isoquinoline-8-carbonyl}-amino)-3-(4′-cyano-biphenyl-4-yl)-propionic acid]"
6,480 nM,"CC[C@@H](c1ccccc1)N1Cc2cc3c(cc2C[C@H]1C(=O)N[C@@H](Cc1ccc(-c2ccc(C#N)cc2)cc1)C(=O)O)OC[C@H](c1ccc(OCc2ccc(Cl)c(Cl)c2)cc1)O3 [Example 72, (S)-3-(4′-Cyano-biphenyl-4-yl)-2-{[(3S,8S)-3-[4-(3,4-dichloro-benzyloxy)-phenyl]-7-((S)-1-phenyl-propyl)-2,3,6,7,8,9-hexahydro-[1,4]dioxino[2,3-g]isoquinoline-8-carbonyl]-amino}-propionic acid]"
7,76 nM,"CC[C@@H](c1ccccc1)N1Cc2cc3c(cc2C[C@H]1C(=O)N[C@@H](Cc1ccc(-c2ccncc2)cc1)C(=O)O)OC[C@H](c1ccc(OCc2ccc(Cl)c(Cl)c2)cc1)O3 [Example 73, (S)-2-{[(3S,8S)-3-[4-(3,4-Dichloro-benzyloxy)-phenyl]-7-((S)-1-phenyl-propyl)-2,3,6,7,8,9-hexahydro-[1,4]dioxino[2,3-g]isoquinoline-8-carbonyl]-amino}-3-(4-pyridin-4-yl-phenyl)-propionic acid]"
8,326 nM,"Cc1nc(N)sc1S(=O)(=O)N1Cc2cc3c(cc2C[C@H]1C(=O)N[C@@H](Cc1ccc(-c2ccc(C#N)cc2)cc1)C(=O)O)OC[C@H](c1ccc(OCc2ccc(Cl)c(Cl)c2)cc1)O3 [Example 81, (S)-2-({(3S,8S)-7-(2-Amino-4-methyl-thiazole-5-sulfonyl)-3-[4-(3,4-dichloro-benzyloxy)-phenyl]-2,3,6,7,8,9-hexahydro-[1,4]dioxino[2,3-g]isoquinoline-8-carbonyl}-amino)-3-(4′-cyano-biphenyl-4-yl)-propionic acid]"
